Measured values taken from patent US4496584A, “Amidine derivatives with anti-complement activity” (Torii & Co. Ltd., priority 1981, dated 1985).

Legend:
trypsin = molecular target: T1, trypsin (Bos taurus, UniProt P00760); assay: Enzyme inhibition, TAME hydrolysis, trypsin (method of Muramatsu et al.); format: biochemical; conditions: hydrolysis of TAME; read-out: ID50, trypsin
T1 sequence (P00760 24-246): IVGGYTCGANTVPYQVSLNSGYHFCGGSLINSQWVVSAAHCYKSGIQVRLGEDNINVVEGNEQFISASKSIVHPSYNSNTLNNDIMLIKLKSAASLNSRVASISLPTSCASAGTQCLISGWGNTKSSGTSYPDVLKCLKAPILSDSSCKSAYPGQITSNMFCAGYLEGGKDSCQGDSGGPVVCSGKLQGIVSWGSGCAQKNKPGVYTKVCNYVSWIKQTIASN
Protocol: (§1) The enzyme inhibitory activity was determined according to the method of Muramatsu et al. [M. Muramatsu, T. Onishi, S. Makino, Y. Hayashi and S. Fujii, J. Biochem., 58, 214 (1965)]. The data summarized in Table 1 are expressed in terms of molar concentration (ID50) of the test compound which inhibits 50% of the activity of each enzyme to hydrolyze TAME (tosylarginine methyl ester).

plasmin = plasmin (Homo sapiens, UniProt P00747); assay: Enzyme inhibition, TAME hydrolysis, plasmin (method of Muramatsu et al.); format: biochemical; conditions: read-out: ID50, plasmin
Protocol: as §1

kallikrein = assay: Enzyme inhibition, TAME hydrolysis, kallikrein (method of Muramatsu et al.); format: biochemical; conditions: read-out: ID50, kallikrein
Protocol: as §1

thrombin = thrombin (Bos taurus, UniProt P00735); assay: Enzyme inhibition, TAME hydrolysis, thrombin (method of Muramatsu et al.); format: biochemical
Protocol: as §1

Clr = molecular target: T2, Clr (Homo sapiens, UniProt P00736); assay: Anti-Cl esterase activity, Clr (AAME hydrolysis, method of Okamura et al.); format: biochemical; conditions: read-out: Anti-C1 activity, Clr (ID50)
T2 sequence (P00736 464-705 limits assumed): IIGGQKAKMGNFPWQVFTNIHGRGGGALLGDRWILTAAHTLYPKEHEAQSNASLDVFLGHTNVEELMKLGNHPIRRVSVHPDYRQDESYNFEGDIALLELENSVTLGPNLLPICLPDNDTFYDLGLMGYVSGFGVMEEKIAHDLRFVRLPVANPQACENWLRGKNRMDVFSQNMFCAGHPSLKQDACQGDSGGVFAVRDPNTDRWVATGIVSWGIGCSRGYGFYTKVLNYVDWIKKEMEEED
T2 sequence (P00736 18-463 partner limits assumed): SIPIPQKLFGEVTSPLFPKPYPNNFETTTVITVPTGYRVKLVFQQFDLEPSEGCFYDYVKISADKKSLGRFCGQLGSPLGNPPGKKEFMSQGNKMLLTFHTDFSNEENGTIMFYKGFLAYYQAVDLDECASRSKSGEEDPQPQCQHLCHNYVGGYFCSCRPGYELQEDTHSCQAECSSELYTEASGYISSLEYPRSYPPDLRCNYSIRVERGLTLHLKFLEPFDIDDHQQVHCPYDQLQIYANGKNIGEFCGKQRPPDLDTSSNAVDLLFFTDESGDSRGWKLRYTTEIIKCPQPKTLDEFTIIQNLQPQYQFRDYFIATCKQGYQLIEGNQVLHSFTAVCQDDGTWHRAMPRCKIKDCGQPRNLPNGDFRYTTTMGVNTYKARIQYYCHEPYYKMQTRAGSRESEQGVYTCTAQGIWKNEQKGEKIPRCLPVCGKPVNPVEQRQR
Protocol: (§2) The anti-Cl esterase (Clr, Cls) activity was determined according to the method of Okamura et al. [K. Okamura, M. Muramatsu and S. Fujii, Biochem. Biophys. Acta, 295, 252-257 (1973)]. The inhibition of complement mediated hemolysis (percent) was determined according to the method of Baker et al. [B. R. Baker and E. H. Erickson, J. Med. Chem., 12, 408-414 (1969)]. The figures in Table 2 have the following meanings:
Clr: Molar concentration of the test compound which inhibits 50% of the ability of Clr to hydrolyse AAME (acetylarginin methyl ester) (ID50).

Cls = molecular target: T3, Cls (Homo sapiens, UniProt P09871); assay: Anti-Cl esterase activity, Cls (ATEE hydrolysis, method of Okamura et al.); format: biochemical; conditions: read-out: Anti-C1 activity, Cls (ID50)
T3 sequence (P09871 438-688 limits assumed): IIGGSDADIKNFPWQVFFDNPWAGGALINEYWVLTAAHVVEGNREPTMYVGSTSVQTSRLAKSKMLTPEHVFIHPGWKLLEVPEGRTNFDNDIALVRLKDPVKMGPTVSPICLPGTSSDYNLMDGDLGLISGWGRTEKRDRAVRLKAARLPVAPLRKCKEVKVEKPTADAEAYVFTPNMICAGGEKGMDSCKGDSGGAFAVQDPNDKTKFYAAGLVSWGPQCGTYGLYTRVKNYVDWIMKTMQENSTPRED
T3 sequence (P09871 16-437 partner limits assumed): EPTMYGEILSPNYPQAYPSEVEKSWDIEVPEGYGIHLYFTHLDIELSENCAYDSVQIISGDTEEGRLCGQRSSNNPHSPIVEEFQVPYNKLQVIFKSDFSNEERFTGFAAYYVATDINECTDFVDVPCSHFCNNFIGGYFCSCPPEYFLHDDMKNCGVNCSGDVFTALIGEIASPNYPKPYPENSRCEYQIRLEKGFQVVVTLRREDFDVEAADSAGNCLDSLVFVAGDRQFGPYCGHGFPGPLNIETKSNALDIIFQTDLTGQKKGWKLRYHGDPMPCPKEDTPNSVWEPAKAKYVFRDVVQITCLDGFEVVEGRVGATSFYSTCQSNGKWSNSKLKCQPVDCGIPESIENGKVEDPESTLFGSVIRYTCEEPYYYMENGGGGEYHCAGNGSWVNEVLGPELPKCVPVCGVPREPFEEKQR
Protocol: as §2
Cls: Molar concentration of the test compound which inhibits 50% of the ability of Cls to hydrolyse ATEE (acetyltyrosin ethyl ester) (ID50).

[1] = test system: complement mediated hemolysis; assay: Inhibition of complement mediated hemolysis (method of Baker et al.); format: cell-based

plasmin, sequence (P00747 581-810 limits assumed): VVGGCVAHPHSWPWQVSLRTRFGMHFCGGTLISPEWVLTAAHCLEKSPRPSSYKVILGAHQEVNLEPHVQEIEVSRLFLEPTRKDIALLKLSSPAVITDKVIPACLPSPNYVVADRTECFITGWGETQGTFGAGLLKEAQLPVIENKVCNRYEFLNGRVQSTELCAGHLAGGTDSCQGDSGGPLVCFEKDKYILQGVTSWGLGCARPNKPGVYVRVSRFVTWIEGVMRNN
plasmin, sequence (P00747 97-580 partner limits assumed): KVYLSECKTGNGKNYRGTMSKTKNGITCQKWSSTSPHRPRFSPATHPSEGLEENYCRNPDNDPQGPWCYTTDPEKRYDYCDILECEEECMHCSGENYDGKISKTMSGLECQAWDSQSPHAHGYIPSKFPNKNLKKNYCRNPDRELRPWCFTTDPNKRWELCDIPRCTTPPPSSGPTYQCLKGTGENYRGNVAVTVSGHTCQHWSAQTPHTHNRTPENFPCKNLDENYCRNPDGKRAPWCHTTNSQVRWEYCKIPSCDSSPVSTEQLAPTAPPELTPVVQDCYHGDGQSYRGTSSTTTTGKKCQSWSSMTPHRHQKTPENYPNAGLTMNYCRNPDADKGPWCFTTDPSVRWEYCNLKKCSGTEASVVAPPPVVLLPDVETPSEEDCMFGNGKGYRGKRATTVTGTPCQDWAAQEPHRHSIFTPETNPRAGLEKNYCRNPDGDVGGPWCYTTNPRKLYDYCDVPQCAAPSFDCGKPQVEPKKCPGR

Compound | IC50 (trypsin) | IC50 (plasmin) | IC50 (kallikrein) | IC50 (thrombin) | IC50 (Clr) | IC50 (Cls) | Inhibition of complement mediated hemolysis (%) ([1]; concentration 1 × 10^-4) | Inhibition of complement mediated hemolysis (%) ([1]; concentration 1 × 10^-5) | Inhibition of complement mediated hemolysis (%) ([1]; concentration 1 × 10^-6) | Inhibition of complement mediated hemolysis (%) ([1]; concentration 1 × 10^-7)
N=C(N)c1ccc2cc(OC(=O)C3CCCCC3)ccc2c1 [Compound No. 12, 6-amidino-2-naphthylcyclohexanecarboxylate] | 20 µM | 10 µM | > 10 µM | 40 µM | 2 µM | 3 µM | 45% | 10% | 11% | 0%
N=C(N)c1ccc2cc(OC(=O)CC3C=CCC3)ccc2c1 (stereo not drawn) [Compound No. 13, 6-amidino-2-naphthyl 2-cyclopenteneacetate] |  |  |  |  |  |  | 39% | 21% | 10% | 10%
N=C(N)c1ccc2cc(OC(=O)CCCC3CCCCC3)ccc2c1 [Compound No. 15, 6-amidino-2-naphthyl 4-cyclohexylbutyrate] |  |  | > 10 µM | > 10 µM |  |  |  |  |  | 
N=C(N)c1ccc2cc(OC(=O)CCCCCNC(=O)OCc3ccccc3)ccc2c1 [Compound No. 16, 6-amidino-2-naphthyl ε-benzyloxycarbonylaminocaproate] | 10 µM | 3 µM | 40 µM | 100 µM | 4 µM | 4 µM | 92% | 15% | 0% | 0%
N=C(N)c1ccc2cc(OC(=O)CCCCCN)ccc2c1 [Compound No. 17, 6-amidino-2-naphthyl ε-aminocaproate] | 200 µM | 40 µM | 50 µM | 600 µM |  |  |  |  |  | 
N=C(N)NCCCCCC(=O)Oc1ccc2cc(C(=N)N)ccc2c1 [Compound No. 18, 6-amidino-2-naphthyl ε-guanidinocaproate] | 10 µM | 30 µM | > 10 µM | 40 µM | 70 µM | 9 µM | 92% | 30% | 3% | 0%
CCCCCC(=O)Oc1ccc2cc(C(=N)N)ccc2c1 [compound 4, 6-amidino-2-naphthyl caproate] | 20 µM | 20 µM | 300 µM | 3000 µM | 5 µM | 4 µM | 83% | 12% | 5% | 0%
N=C(N)c1ccc2cc(OC(=O)[C@H]3CC[C@H](CNC(=O)OCc4ccccc4)CC3)ccc2c1 [compound 19, 6-amidino-2-naphtyl trans-4-benzyloxycarbonylaminomethylcyclohexanecarboxylate] | 1 µM | 0.8 µM | 6 µM | 30 µM | 0.4 µM | 0.4 µM | 55% | 88% | 25% | 6%
